{"source": "patent US12053480B2", "about": "“Methods and pharmaceutical compositions for treating peripheral demyelinating diseases” (INSERM (INSTITUT NATIONAL DE LA SANTE ET DE LA RECHERCHE …, priority 2015, dated 2024)", "system": "diabetic (db/db) mice", "assay": "Sciatic nerve myelin morphometry (toluidine blue, TEM) in diabetic mice", "format": "in vivo, mouse", "settings": "diabetic mice treated daily for one month", "method": "Sciatic nerves of 20 and 28 weeks old diabetic mice or 16 and 24 weeks old CMT1A rats treated with TRO19622 drug or PBS were fixed for 20 min in situ with 4% PFA and 2.5% glutaraldehyde, in 0.1 M phosphate buffer (pH7.3). Then nerves were removed and postfixed overnight in the same buffer.\nAfter washing 30 min in 0.2M PBS phosphate buffer, the nerves were incubated with 2% osmic acid in 0.1M phosphate buffer for 90 minutes at room temperature. Then, samples were washed in 0.2M PBS phosphate buffer, dehydrated using ethanol gradient solutions and embedded in epoxy resin. For electron microscopy of sciatic nerves, ultrathin (70 nm) cross-sections were cut and stained with 1% uranylacetate solution and lead-citrate and analyzed using a HITACHI H7100 electron microscope at the ‘Centre des Resources en Imagerie Cellulaire’ (CRIC) (for further details see Cotter et al., 2010^9). […] G-ratio was determined using GRatioCalculator plugin of Image J. At less 200 fibers per animal were analysed.\nTo go further 16-weeks-old diabetic and control mice were treated daily with vehicle or TRO19622 for one month. One day and two months after drug treatment, myelin was evaluated in the sciatic nerve using toluidine blue staining and transmission electron microscopy (TEM) to measure the g-ratio (axon diameter on total myelinated fiber diameter)."}
{"smiles": "CC(C)CCC[C@@H](C)[C@H]1CC[C@H]2[C@@H]3CCC4=C/C(=N\\O)CC[C@]4(C)[C@H]3CC[C@]12C", "note": "[TRO19622, (NZ)—N-[(8S,9S,10R,13R,14S,17R)-10,13-dimethyl-17-[(2R)-6-methylheptan-2-yl]-1,2,6,7,8,9,11,12,14,15,16,17-dodecahydrocyclopenta[a]phenanthren-3-ylidene]hydroxylamine]", "values": [{"measurement": "axon number and diameter", "value": "No differences"}, {"measurement": "g-ratio", "setting": "compared to vehicle", "value": "significant decrease"}]}
